Experimental data: patent publication US8841073B2, “Methods for identifying RNA segments bound by RNA-binding proteins or ribonucleoprotein complexes” (The Rockefeller University, priority 2008, dated 2014)
{NH2} = code of the source, not defined here; [4sU] = 4-thiouridine

biological target: T1, recombinant His6-QKI protein (Homo sapiens, UniProt Q96PU8); experiment: Electrophoretic mobility shift assay (gel-shift) with recombinant QKI; type: binding; details: not given
T1 construct: His6 (N); made in house; host or cells: E. coli STAR(DE3)
T1 sequence (Q96PU8 1-319 isoform Q96PU8-9): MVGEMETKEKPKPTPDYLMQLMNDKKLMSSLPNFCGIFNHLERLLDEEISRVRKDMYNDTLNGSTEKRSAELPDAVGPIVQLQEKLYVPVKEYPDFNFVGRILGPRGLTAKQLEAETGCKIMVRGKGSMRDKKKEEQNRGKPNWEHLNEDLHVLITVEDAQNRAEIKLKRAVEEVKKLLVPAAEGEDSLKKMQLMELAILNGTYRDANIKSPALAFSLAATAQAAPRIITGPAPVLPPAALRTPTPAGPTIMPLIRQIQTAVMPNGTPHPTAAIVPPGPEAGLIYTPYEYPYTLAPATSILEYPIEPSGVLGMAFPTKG
Experimental: FIG. 11: Electrophoretic mobility shift assay (EMSA) to analyze binding of recombinant QKI to synthetic oligoribonucleotides with a sequence derived from a cluster identified by QKI PURE-CLIP. […] C Mutation of either one of the QKI binding sites (marked with red bars in the RNA-sequence) results in decreased affinity of QKI to the RNA. Mutation of both binding sites leads to complete loss of affinity of QKI to the RNA.
Radiolabeled RNA (1 nM) was incubated with recombinant His6-QKI protein at various concentrations and 100 ng tRNA in 20 μl of 20 mM HEPES-KOH, pH 7.4, 330 mM KCl, 10 mM MgCl2, 0.1 mM EDTA and 0.01% IGEPAL CA630 (Sigma). After addition of 6 μl loading dye (40% glycerol, bromophenol blue in binding buffer), the solution was loaded onto a native 10% acrylamide gel containing 0.5×TBE, running at 200 V for 2 h at room temperature, using 0.5×TBE as running buffer. The protein-bound RNA and the free RNA were quantified using a phosphorimager.

**Q.** With “U10: synthetic oligoribonucleotide with 4SU at position 3 of the QKI recognition element; GUAUGCCAU(4sU)AACAAAUUCAUUAACAA (SEQ ID NO: 31) (GUAUGCCAUUAACAAAUUCAUUAACAA; RNA, [4sU] at 10, backbone not given here)” as the substance, how does the “RNA-binding / affinity to recombinant QKI by gel-shift analysis” value read?
**A.** unaffected

test system: most abundant miRNAs in HEK293 cells; experiment: miRNA inhibition by cocktail of 2'-O-methyl antisense oligoribonucleotides in HEK293 cells; seed match depletion/enrichment in down-/up-regulated transcripts (Affymetrix arrays); type: cell-based, human; details: antisense cocktail vs mock
Experimental: All miRNAs are assumed to have U at position 1. p-values for 4 types of seeds, indicated below, were tested.
miRNAs are predominantly localized to the cytoplasm although a smaller fraction can be detected in nuclear extracts (Hwang et al., 2007; Meister et al., 2004; Pena et al., 2009; Robb et al., 2005; Weinmann et al., 2009). Our CCRs correspond to 84% exonic, 14% intronic, and 2% not assigned transcribed regions. This distribution is consistent with the predominant cytoplasmic function of miRNAs. Of the exonic CCRs, 50% distributed to the CDS, 46% to the 3′ UTR, and 4% to the 5′ UTR of mRNAs, with a specific enrichment in the 3′UTRs relative to what is expected based on the relative lengths of different transcript regions (FIG. 6D). The identification of such a large number of miRNA binding sites within the CDS was unexpected, because miRNA are believed to predominantly act on 3′ UTRs (Bartel, 2009), with a few reports providing evidence for miRNA-binding to 5′ UTR or CDS (Forman et al., 2008; Lytle et al., 2007; Orom et al., 2008; Tay et al., 2008). In order to determine if CCR-containing transcripts were indeed subject to miRNA-dependent regulation, we inhibited 25 of the most abundant miRNAs in HEK293 cells (FIG. 5C) with a cocktail of 2′-O-methyl-modified antisense oligoribonucleotides (FIG. 7A and see FIG. 28A-C for the efficiency of the individual antisense oligoribonucleotide). The change in relative mRNA abundance before and after miRNA inhibition was recorded by Affymetrix whole transcriptome array analysis.
miRNA duplexes and 2′-O-methyl oligoribonucletide transfections of HEK293 TREx Flp-In cells were carried out using Lipofectamine RNAiMAX (Invitrogen). Total RNA was isolated by TRIZOL RNA extraction. The RNA was further purified and Human Genome U133 Plus 2.0 Array (Affymetrix) analyses were performed as described previously (Landthaler et al., 2008).
CEL files of mRNA profiles from miRNA/2′O-methyl oligonucleotide and mocktransfected cell were loaded into the R software using the BioConductor affy package (Gentleman et al., 2004). The transcript probe set intensities were background-corrected, adjusted for non-specific binding and quantile normalized with the GCRMA algorithm (Wu, 2006). Probe sets with more than 6 of the 11 probes mapping ambiguously to the genome were discarded, as were probe sets that mapped to multiple genes. We then collected all probe sets matching a given gene, and we computed the logarithm of gene-level expression as the average of the log-intensity of probe sets mapping to that gene. For sequence analyses we also selected a representative transcript for each gene. This was the Genbank transcript with median 3′ UTR length corresponding to that gene. In total this procedure gave us expression measurements for 16,063 genes (and representative transcripts). The difference between the log-expression levels of a gene in samples treated with a cocktail of 2′-O-methyl oligoribonucleotides and mock transfected cells was taken as a measure of transcript stabilization upon miRNA inhibition.

**Q.** How did the “efficiency of the individual antisense oligoribonucleotide (inhibition of cognate miRNA)” value (“efficiency … (inhibition of cognate miRNA)” for short) turn out when “let-7a: 2'-O-methyl antisense oligoribonucleotide AACUAUACAACCUACUACCUCA-NH2 (SEQ ID NO: 42) (all 2'-O-methyl, 3' {NH2}, backbone not given here)” was run?
**A.** Marginal

**Q.** How did the “efficiency … (inhibition of cognate miRNA)” value turn out when “miR-10a: 2'-O-methyl antisense oligoribonucleotide CACAAAUUCGGAUCUACAGGGUA-NH2 (SEQ ID NO: 43) (all 2'-O-methyl, 3' {NH2}, backbone not given here)” was run?
**A.** did not seem to have inhibited their cognate miRNAs

**Q.** For “miR-15a: 2'-O-methyl antisense oligoribonucleotide CGCCAAUAUUUACGUGCUGCUA (SEQ ID NO: 44) (all 2'-O-methyl, backbone not given here)”, which “efficiency … (inhibition of cognate miRNA)” value is on record?
**A.** Worked

**Q.** Which “efficiency … (inhibition of cognate miRNA)” value does the source give for “miR-17: 2'-O-methyl antisense oligoribonucleotide CUACCUGCACUGUAAGCACUUUG (SEQ ID NO: 47) (all 2'-O-methyl, backbone not given here)” here?
**A.** Worked

**Q.** With “miR-18a: 2'-O-methyl antisense oligoribonucleotide CUAUCUGCACUAGAUGCACCUUA-NH2 (SEQ ID NO: 48) (all 2'-O-methyl, 3' {NH2}, backbone not given here)” as the substance, how does the “efficiency … (inhibition of cognate miRNA)” value read?
**A.** Worked

**Q.** For “miR-19a: 2'-O-methyl antisense oligoribonucleotide UCAGUUUUGCAUAGAUUUGCACA (SEQ ID NO: 49) (all 2'-O-methyl, backbone not given here)”, which “efficiency … (inhibition of cognate miRNA)” value is on record?
**A.** Worked

**Q.** Which “efficiency … (inhibition of cognate miRNA)” value does the source give for “miR-21: 2'-O-methyl antisense oligoribonucleotide UCAACAUCAGUCUGAUAAGCUA (SEQ ID NO: 53) (all 2'-O-methyl, backbone not given here)” here?
**A.** Marginal

**Q.** “miR-27a: 2'-O-methyl antisense oligoribonucleotide AACUAUACAAUCUACUACCUCA (SEQ ID NO: 55) (all 2'-O-methyl, backbone not given here)” was tested. Which “efficiency … (inhibition of cognate miRNA)” value did it give?
**A.** did not seem to have inhibited their cognate miRNAs

**Q.** “miR-30a: 2'-O-methyl antisense oligoribonucleotide CUUCCAGUCGAGGAUGUUUACA-NH2 (SEQ ID NO: 56) (all 2'-O-methyl, 3' {NH2}, backbone not given here)” was tested. Which “efficiency … (inhibition of cognate miRNA)” value did it give?
**A.** Worked

**Q.** With “miR-92a: 2'-O-methyl antisense oligoribonucleotide ACAGGCCGGGACAAGUGCAAUA (SEQ ID NO: 58) (all 2'-O-methyl, backbone not given here)” as the substance, how does the “efficiency … (inhibition of cognate miRNA)” value read?
**A.** Worked

**Q.** “miR-101: 2'-O-methyl antisense oligoribonucleotide UUCAGUUAUCACAGUACUGUA (SEQ ID NO: 60) (all 2'-O-methyl, backbone not given here)” was tested. Which “efficiency … (inhibition of cognate miRNA)” value did it give?
**A.** Marginal

**Q.** With “miR-103: 2'-O-methyl antisense oligoribonucleotide UCAUAGCCCUGUACAAUGCUGCU (SEQ ID NO: 61) (all 2'-O-methyl, backbone not given here)” as the substance, how does the “efficiency … (inhibition of cognate miRNA)” value read?
**A.** Worked

**Q.** Which “efficiency … (inhibition of cognate miRNA)” value does the source give for “miR-186: 2'-O-methyl antisense oligoribonucleotide AGCCCAAAAGGAGAAUUCUUUG (SEQ ID NO: 63) (all 2'-O-methyl, backbone not given here)” here?
**A.** Didn't Work Well

**Q.** “miR-301b: 2'-O-methyl antisense oligoribonucleotide GCUUUGACAAUACUAUUGCACUG (SEQ ID NO: 64) (all 2'-O-methyl, backbone not given here)” was tested. Which “efficiency … (inhibition of cognate miRNA)” value did it give?
**A.** Worked

**Q.** For “miR-378: 2'-O-methyl antisense oligoribonucleotide CCUUCUGACUCCAAGUCCAGU (SEQ ID NO: 65) (all 2'-O-methyl, backbone not given here)”, which “efficiency … (inhibition of cognate miRNA)” value is on record?
**A.** Marginal

same assay, conditions: antisense cocktail vs mock, listed as MiR-10a

**Q.** “miR-10a: 2'-O-methyl antisense oligoribonucleotide CACAAAUUCGGAUCUACAGGGUA-NH2 (SEQ ID NO: 43) (all 2'-O-methyl, 3' {NH2}, backbone not given here)” was tested. Which “efficiency … (inhibition of cognate miRNA)” value did it give?
**A.** Didn't Work

same assay, conditions: antisense cocktail vs mock, listed as MiR-27a

**Q.** For “miR-27a: 2'-O-methyl antisense oligoribonucleotide AACUAUACAAUCUACUACCUCA (SEQ ID NO: 55) (all 2'-O-methyl, backbone not given here)”, which “efficiency … (inhibition of cognate miRNA)” value is on record?
**A.** Didn't Work
